The values that follow come from publication PMC9088311, “Cyclic Thiosulfonates for Thiol-Mediated Uptake: Cascade Exchangers, Transporters, Inhibitors” (JACS Au, 2022).

Converted amounts (≈) assume the structure as drawn. Like-named read-outs stand apart in the source and are kept apart here.

In one data set the test system is HK cells, transporter 28. Briefly: HCHT imaging: inhibition of cytosolic delivery of CTO transporter 28. In kind it is cell-based, Human. Details: key to inhibition of CTO 28 uptake (heatmap): –: −: inactive; ++: qualitative inhibition of SC2 uptake. As to conditions: for IC50 / IC15: Homo sapiens; for IC50: read-out: IC50 (concentration needed to reach 50% inhibition), transporter 28 5 μM; for IC50 / IC15 / MIC (concentration needed to reach 15% inhibition): inhibitor 1 h.

The test system of data set [1] is HeLa Kyoto cells. Briefly: Relative viability (HOE/PI) in HCHT screening. The method, boiled down:
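HK cells exposed to increasing inhibitor concentrations, then fluorescent transporters at constant concentration, either after inhibitor removal (pre-incubation) or without removal (co-incubation).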

Data set [2] concerns HK cells, transporter 31. As to conditions: transporter 31 10 μM, pre-incubation (P), cited from earlier work; for IC50: read-out: IC50 (concentration needed to reach 50% inhibition).
The subject of the next data set is HK cells, transporter 32. Further details: method as in PMID 34173696. As to conditions: transporter 32 0.5 or 1 μM, pre-incubation (P), cited from earlier work; for IC50: read-out: IC50 (concentration needed to reach 50% inhibition).
A further data set in a line: in vitro. As to conditions: human.
For data set [3], the system named is HeLa Kyoto cells. The settings on record: with transporter 31; pre-incubation (P); cited from earlier work.
The test system of another data set is HeLa Kyoto (HK) cells. The data set is described as follows: Cellular uptake of fluorescent transporters (HCHT imaging, SDCM). In kind it is cell-based, Human. The settings on record: 10, 20, 50 μM transporter. As to the method:
Cellular uptake was measured by automated high-content high-throughput (HCHT) imaging.[51] This method provides access to biologically meaningful and statistically relevant data from thousands of cells within a very short time. For the uptake monitoring, HeLa Kyoto (HK) cells in multiwell plates were incubated with the fluorescent transporters 28–30 for 1 h, washed, and imaged by spinning disk confocal microscopy (SDCM) to quantify the fluorescent transporters that have entered the cells. […] The better activity of CTOs 28 compared to 29 was consistent with the concept of hydrophobic directing groups, expected to guide CTOs into an aprotic environment within membranes or proteins to activate the sulfinate exchanger and thus turn on dynamic covalent exchange cascades with cellular partners (Figure 2D). The passive diffusion of transporter 28 across the membrane is conceivable but unlikely because this process can be inhibited by other CAXs (see the next section).
4. High-Content High-Throughput (HCHT) Inhibitor Screening […]
The distribution of fluorescence stained cells was analyzed without fixing using an IXM-C automated microscope. 4 images per well were recorded using 10× objective lens, and fluorescent images were acquired with three channels, blue with 377/50 nm excitation filter and 477/60 nm emission filter, green for FITC transporter with 475/34 nm excitation filter and […]

The test system of data set [4] is HK cells, transporter 31. Briefly: HCHT imaging: inhibition of cytosolic delivery of ETP transporter 31. The class given is cell-based, Human. As to conditions: inhibitor 1 h; for IC15: read-out: MIC (concentration needed to reach 15% inhibition), transporter 31 10 μM. A digest of the protocol:
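HeLa Kyoto cells grown 24 h in FluoroBrite DMEM + 10% FBS on 96-well black plates were exposed to serially diluted inhibitors for 1 h at 37 °C, then given fluorescent transporter 31 at 10 μM for 30 min, either after washing the inhibitor out (pre-incubation) or with it still present (co-incubation). Cytosolic delivery was then scored by automated HCHT live-cell imaging with Hoechst 33342 and PI staining.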

For data set [5], the system named is A549 human lung alveolar basal epithelium cells overexpressing ACE2 and TMPRSS2. The settings on record: inhibitor 5 μM.
A further data set concerns trypsin. The data set is described as follows: Trypsin inhibition (preliminary, not shown). In kind it is biochemical. The settings on record: 50 μM; preliminary results.
For another data set, the target named is cathepsin L (Homo sapiens, UniProt P07711). The data set is described as follows: Cathepsin L inhibition (preliminary, not shown). The class given is biochemical. The settings on record: 50 μM; preliminary results.
cathepsin L, sequence (P07711 114-333, species assumed): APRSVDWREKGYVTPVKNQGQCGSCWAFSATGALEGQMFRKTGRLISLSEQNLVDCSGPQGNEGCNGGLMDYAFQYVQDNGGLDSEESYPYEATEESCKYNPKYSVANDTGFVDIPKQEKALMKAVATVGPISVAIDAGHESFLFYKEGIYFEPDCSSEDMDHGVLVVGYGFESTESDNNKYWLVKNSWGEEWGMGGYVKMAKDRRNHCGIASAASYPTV
For a further data set, the target named is cathepsin B (Homo sapiens, UniProt P07858). Briefly: Cathepsin B inhibition (preliminary, not shown). The class given is biochemical. The settings on record: 50 μM; preliminary results.
The mark [6] stands for this setting: transporter 28 5 μM, pre-incubation (P).
Where [7] appears, read: with transporter 28, pre-incubation (P).
[8] abbreviates: with transporter 31, co-incubation (C).

The viability is a read-out of living cells in per cent, often relative to untreated cells. Turning to `CCN1C(=O)C2SSSSC1C(=O)N2CC(=O)O` (stereo not drawn) [Compound 47, reference compound], the IC50 in the data set with HK cells, transporter 28 (pre-incubation (P)) is above 10 µM; in the data set on HK cells, transporter 31 [2], 1.3 µM; in the data set with HK cells, transporter 32, 50 µM. Also, the IC15 in the data set with HK cells, transporter 28 (read-out: MIC (concentration needed to reach 15% inhibition), transporter 28 5 μM, pre-incubation (P)) is above 10 µM. Further, the “inhibition of CTO 28 uptake (heatmap)” value in the data set on HK cells, transporter 28 (pre-incubation conditions) is recorded as “–”. Besides, the “MIC (concentration needed to reach 15% inhibition)” value is above 10 µM in the data set with HK cells, transporter 28 (setting [6]) and 2 µM (≈ 0.653 µg/mL) in the data set on HK cells, transporter 32. Further, the “RV50 (concentration needed to lower relative viability by 50%)” value in the data set with HeLa Kyoto cells [1] (setting [7]) is above 10 µM; in the data set on HeLa Kyoto cells [3], 35 µM. In addition, the viability at 7 h, 50 µM in the data set “in vitro” was 70%.

For the molecule `O=C(CO[C@H]1CSS(=O)(=O)C[C@@H]1O)NCCNC(=S)Nc1ccc(-c2c3ccc(=O)cc-3oc3cc(O)ccc23)c(C(=O)O)c1` [Compound 29], the “cellular uptake, fluorescence intensity of HK cells (in words)” value in the data set with HeLa Kyoto (HK) cells is reported as “more active than the AspA 30 standard”.

In the case of `CC#CI1OC(=O)c2ccccc21` [Compound 49, reference compound], the IC15 with HK cells, transporter 28 (1 h, read-out: MIC (concentration needed to reach 15% inhibition), transporter 28 5 μM, pre-incubation (P)) came out at 8.7 µM. For the same molecule, the IC50 was 53 µM in the data set with HK cells, transporter 28 (pre-incubation (P)); 40 µM in the data set with HK cells, transporter 31 [2]; 10 µM in the data set with HK cells, transporter 32. Moreover, the “MIC (concentration needed to reach 15% inhibition)” value with HK cells, transporter 28 (setting [6]) was 9 µM (≈ 2.57 µg/mL); in the data set with HK cells, transporter 31 [2] it was 4 µM (≈ 1.14 µg/mL); in the data set on HK cells, transporter 32, 0.3 µM (≈ 0.0858 µg/mL). Moreover, the results for the “RV50 (concentration needed to lower relative viability by 50%)” value with HeLa Kyoto cells [1] (setting [7]) and in the data set with HeLa Kyoto cells [3] were above 50 µM and 60 µM, respectively. The molecule further had a viability at 7 h, 5 µM in the data set “in vitro” of 92%.

`CC(C)(C)OC(=O)NCCNC(=O)O[C@H]1CSS(=O)(=O)C[C@H]1O[Si](C)(C)C(C)(C)C` (racemic) [Compound 50]: in the data set on HK cells, transporter 31 [4] (read-out: IC50 (concentration needed to reach 50% inhibition), transporter 31 10 μM, co-incubation (C)), the IC50 stood at 20 ± 3 µM. The “MIC (concentration needed to reach 15% inhibition)” value with HK cells, transporter 31 [4] (transporter 31 10 μM, co-incubation (C)) was found to be 5.6 µM. Moreover, in the data set with HeLa Kyoto cells [1] (setting [8]), the “RV50 (concentration needed to lower relative viability by 50%)” value is recorded as “≈ 20 μM”. Besides, in data set [5], the “RV, relative cell viability” value stood at 110 ± 10%.

For the molecule `CC(C)(C)OC(=O)NCCNC(=O)O[C@H]1CSS(=O)(=O)C[C@H]1O` [Compound 34], the IC50 in the data set with HK cells, transporter 28 (1 h, co-incubation (C)) was 26 µM; in the data set on HK cells, transporter 31 [4] (Homo sapiens, 1 h, read-out: IC50 (concentration needed to reach 50% inhibition), transporter 31 10 μM, co-incubation (C)), above 100 µM; with HK cells, transporter 31 [4] (Homo sapiens, read-out: IC50 (concentration needed to reach 50% inhibition), transporter 31 10 μM, pre-incubation (P)), above 100 µM. The IC15 amounted to 1.2 µM with HK cells, transporter 28 (1 h, read-out: MIC (concentration needed to reach 15% inhibition), transporter 28 5 μM, co-incubation (C)); 16 µM in the data set with HK cells, transporter 31 [4] (Homo sapiens, 1 h, co-incubation (C)); 3 µM in the data set on HK cells, transporter 31 [4] (Homo sapiens, 1 h, pre-incubation (P)). In addition, the “MIC (concentration needed to reach 15% inhibition)” value in the data set on HK cells, transporter 28 (transporter 28 5 μM, co-incubation (C)) is 1 µM; against HK cells, transporter 31 [4] (transporter 31 10 μM, pre-incubation (P)) it was 3 µM (≈ 1.11 µg/mL). Besides, the “RV50 (concentration needed to lower relative viability by 50%)” value is above 50 µM in the data set on HeLa Kyoto cells [1] (with transporter 28, co-incubation (C)); above 100 µM in the data set on HeLa Kyoto cells [1] (setting [8]); above 100 µM in the data set on HeLa Kyoto cells [1] (with transporter 31, pre-incubation (P)). For the same molecule, the “inhibition of trypsin (in words)” value with trypsin was “inhibit only cathepsin B”. Also, the “inhibition of cathepsin L (in words)” value at cathepsin L is recorded as “inhibit only cathepsin B”. The “inhibition of cathepsin B (in words)” value against cathepsin B is “inhibit only cathepsin B”. Moreover, the viability at 7 h, 50 µM in the data set “in vitro” came out at 76%.

In the case of `CC(C)(C)[Si](C)(C)O[C@H]1CS(=O)(=O)SC[C@@H]1OCC(=O)NCCNC(=S)Nc1ccc(-c2c3ccc(=O)cc-3oc3cc(O)ccc23)c(C(=O)O)c1` [Compound 28], the “cellular uptake, fluorescence intensity of HK cells (in words)” value in the data set with HeLa Kyoto (HK) cells is “more active than the AspA 30 standard”.

Turning to `CC(=O)/C=C1/C(=O)N(C)c2ccccc21` [Compound 48, super-cinnamaldehyde, reference compound], in the data set with HK cells, transporter 31 [2], the IC50 is 4 µM and the “MIC (concentration needed to reach 15% inhibition)” value is below 1 µM. Moreover, the viability at 7 h, 5 µM in the data set “in vitro” stood at 94%. The “RV50 (concentration needed to lower relative viability by 50%)” value in the data set with HeLa Kyoto cells [3] was above 20 µM.
